Measured values as given in the supplement of paper PMC10307832.

Assays:
Assay in all cases: relative viability (nuclei count vs DMSO), 5 days (fraction); higher = more cells survive
Cabozantinib + Dasatinib = compound: COc1cc2nccc(Oc3ccc(NC(=O)C4(C(=O)Nc5ccc(F)cc5)CC4)cc3)c2cc1OC [Cabozantinib] + Cc1nc(Nc2ncc(C(=O)Nc3c(C)cccc3Cl)s2)cc(N2CCN(CCO)CC2)n1 [Dasatinib] (partner 0.075 µM)
Summary of the method: (§1)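 One day after seeding in 1536-well plates, lung cancer cell lines were dosed by pin tool. Dosing was either single-drug or a fixed anchor-drug dose plus five library-drug doses (not always all listed) in √10 steps. After 5 days, nuclei were stained in one fix-and-stain step and counted on 4× images, and relative viability is the nuclei count of treated wells over that of vehicle wells, given as the median of duplicate plates.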

Kobe2602 + Bortezomib = compound: C1=CC(=CC=C1NC(=S)NNC2=C(C=C(C=C2[N+](=O)[O-])C(F)(F)F)[N+](=O)[O-])F [Kobe2602] + CC(C)C[C@H](NC(=O)[C@H](Cc1ccccc1)NC(=O)c1cnccn1)B(O)O [Bortezomib] (partner 0.002 µM)
Summary of the method: as §1

[1] = compound: COc1cc2nccc(Oc3ccc(NC(=O)C4(C(=O)Nc5ccc(F)cc5)CC4)cc3)c2cc1OC [Cabozantinib] + C[C@@H](Oc1cc(-c2cnn(C3CCNCC3)c2)cnc1N)c1c(Cl)ccc(F)c1Cl [Crizotinib] (partner 1 µM)
Summary of the method: as §1

[2] = compound: COc1cc2nccc(Oc3ccc(NC(=O)C4(C(=O)Nc5ccc(F)cc5)CC4)cc3)c2cc1OC [Cabozantinib] + CC(C)C[C@H](NC(=O)[C@H](Cc1ccccc1)NC(=O)c1cnccn1)B(O)O [Bortezomib] (partner 0.002 µM)
Summary of the method: as §1

NCI-H2126
relative viability (Cabozantinib + Dasatinib; first compound 0.02 µM): 0.497
relative viability (Cabozantinib + Dasatinib; first compound 0.06325 µM): 0.625
relative viability (Cabozantinib + Dasatinib; first compound 0.2 µM): 0.624
relative viability (Cabozantinib + Dasatinib; first compound 0.6325 µM): 0.634
relative viability (Cabozantinib + Dasatinib; first compound 2 µM): 0.573
relative viability (Kobe2602 + Bortezomib; first compound 0.2 µM): 1.14
relative viability (Kobe2602 + Bortezomib; first compound 0.6325 µM): 1.09
relative viability (Kobe2602 + Bortezomib; first compound 2 µM): 1.11
relative viability (Kobe2602 + Bortezomib; first compound 6.325 µM): 1.19
relative viability (Kobe2602 + Bortezomib; first compound 20 µM): 1.11
relative viability ([1]; first compound 0.02 µM): 1.03
relative viability ([1]; first compound 0.06325 µM): 1.04
relative viability ([1]; first compound 0.2 µM): 1.01
relative viability ([1]; first compound 0.6325 µM): 1.04
relative viability ([1]; first compound 2 µM): 1.02
relative viability ([2]; first compound 0.02 µM): 1.13
relative viability ([2]; first compound 0.06325 µM): 1.11
relative viability ([2]; first compound 0.2 µM): 1.1
relative viability ([2]; first compound 0.6325 µM): 1.14
relative viability ([2]; first compound 2 µM): 1.11

NCI-H647
relative viability (Cabozantinib + Dasatinib; first compound 0.02 µM): 0.281
relative viability (Cabozantinib + Dasatinib; first compound 0.06325 µM): 0.17
relative viability (Cabozantinib + Dasatinib; first compound 0.2 µM): 0.201
relative viability (Cabozantinib + Dasatinib; first compound 0.6325 µM): 0.147
relative viability (Cabozantinib + Dasatinib; first compound 2 µM): 0.136
relative viability (Kobe2602 + Bortezomib; first compound 0.2 µM): 0.911
relative viability (Kobe2602 + Bortezomib; first compound 0.6325 µM): 1.22
relative viability (Kobe2602 + Bortezomib; first compound 2 µM): 0.889
relative viability (Kobe2602 + Bortezomib; first compound 6.325 µM): 0.882
relative viability (Kobe2602 + Bortezomib; first compound 20 µM): 0.938
relative viability ([1]; first compound 0.02 µM): 1.23
relative viability ([1]; first compound 0.06325 µM): 1.58
relative viability ([1]; first compound 0.2 µM): 1.05
relative viability ([1]; first compound 0.6325 µM): 1.07
relative viability ([1]; first compound 2 µM): 0.877
relative viability ([2]; first compound 0.02 µM): 1.17
relative viability ([2]; first compound 0.06325 µM): 1.17
relative viability ([2]; first compound 0.2 µM): 1.19
relative viability ([2]; first compound 0.6325 µM): 0.893
relative viability ([2]; first compound 2 µM): 1.13

LU99A
relative viability (Cabozantinib + Dasatinib; first compound 0.02 µM): 0.461
relative viability (Cabozantinib + Dasatinib; first compound 0.06325 µM): 0.715
relative viability (Cabozantinib + Dasatinib; first compound 0.2 µM): 0.412
relative viability (Cabozantinib + Dasatinib; first compound 0.6325 µM): 0.448
relative viability (Cabozantinib + Dasatinib; first compound 2 µM): 0.523
relative viability (Kobe2602 + Bortezomib; first compound 0.2 µM): 1.13
relative viability (Kobe2602 + Bortezomib; first compound 0.6325 µM): 1.39
relative viability (Kobe2602 + Bortezomib; first compound 2 µM): 1.12
relative viability (Kobe2602 + Bortezomib; first compound 6.325 µM): 1.17
relative viability (Kobe2602 + Bortezomib; first compound 20 µM): 1.22
relative viability ([1]; first compound 0.02 µM): 0.585
relative viability ([1]; first compound 0.06325 µM): 0.607
relative viability ([1]; first compound 0.2 µM): 0.592
relative viability ([1]; first compound 0.6325 µM): 0.567
relative viability ([1]; first compound 2 µM): 0.527
relative viability ([2]; first compound 0.02 µM): 1.13
relative viability ([2]; first compound 0.06325 µM): 1.16
relative viability ([2]; first compound 0.2 µM): 1.17
relative viability ([2]; first compound 0.6325 µM): 0.986
relative viability ([2]; first compound 2 µM): 1.06

NCI-H1666
relative viability (Cabozantinib + Dasatinib; first compound 0.02 µM): 0.727
relative viability (Cabozantinib + Dasatinib; first compound 0.06325 µM): 0.899
relative viability (Cabozantinib + Dasatinib; first compound 0.2 µM): 0.766
relative viability (Cabozantinib + Dasatinib; first compound 0.6325 µM): 0.839
relative viability (Cabozantinib + Dasatinib; first compound 2 µM): 0.795
relative viability (Kobe2602 + Bortezomib; first compound 0.2 µM): 0.919
relative viability (Kobe2602 + Bortezomib; first compound 0.6325 µM): 0.728
relative viability (Kobe2602 + Bortezomib; first compound 6.325 µM): 0.737
relative viability (Kobe2602 + Bortezomib; first compound 20 µM): 0.867
relative viability ([1]; first compound 0.02 µM): 0.965
relative viability ([1]; first compound 0.06325 µM): 1
relative viability ([1]; first compound 0.2 µM): 1.05
relative viability ([1]; first compound 0.6325 µM): 1.1
relative viability ([1]; first compound 2 µM): 1.08
relative viability ([2]; first compound 0.02 µM): 0.87
relative viability ([2]; first compound 0.06325 µM): 0.934
relative viability ([2]; first compound 0.2 µM): 0.879
relative viability ([2]; first compound 0.6325 µM): 1.02
relative viability ([2]; first compound 2 µM): 0.875

NCI-H596
relative viability (Cabozantinib + Dasatinib; first compound 0.02 µM): 0.509
relative viability (Cabozantinib + Dasatinib; first compound 0.06325 µM): 0.637
relative viability (Cabozantinib + Dasatinib; first compound 0.2 µM): 0.558
relative viability (Cabozantinib + Dasatinib; first compound 0.6325 µM): 0.582
relative viability (Cabozantinib + Dasatinib; first compound 2 µM): 0.544
relative viability (Kobe2602 + Bortezomib; first compound 0.2 µM): 1.08
relative viability (Kobe2602 + Bortezomib; first compound 0.6325 µM): 1
relative viability (Kobe2602 + Bortezomib; first compound 2 µM): 1.08
relative viability (Kobe2602 + Bortezomib; first compound 6.325 µM): 0.987
relative viability (Kobe2602 + Bortezomib; first compound 20 µM): 0.965
relative viability ([1]; first compound 0.02 µM): 1.06
relative viability ([1]; first compound 0.06325 µM): 1.06
relative viability ([1]; first compound 0.2 µM): 0.87
relative viability ([1]; first compound 0.6325 µM): 1.01
relative viability ([1]; first compound 2 µM): 0.888
relative viability ([2]; first compound 0.02 µM): 0.966
relative viability ([2]; first compound 0.06325 µM): 1.07
relative viability ([2]; first compound 0.2 µM): 1.02
relative viability ([2]; first compound 0.6325 µM): 0.802
relative viability ([2]; first compound 2 µM): 0.996
